The target of data set [1] is T1, PARP1 (Homo sapiens, UniProt P09874).
T1 construct: purchased Abcam
The experiment in a line: In vitro PARP1 inhibition assay (chemiluminescence). Conditions: PARP1 enzyme 0.6 units/well. In kind it is biochemical. On the procedure:
In each well, 50 μL of 1 × PARP1 buffer was added and incubated for 30 min at room temperature. The 1 × PARP1 buffer was removed from the wells, and then 25 μL of 1 × PARP1 cocktail was added to each well along with varying doses of compounds and PARP1 enzyme (0.6 units/well). Incubated and washed twice with PBS and 0.1% Triton X-100. Then added 50 μL Strep-HRP and washed twice. Equal volumes (100 μL) of PeroxyGlow A and B were added to each well and immediately take chemiluminescent readings. Data were analyzed by GraphPad Prism 9 software based on chemiluminescence readings of chemiluminescent substrates of Strep-HRP in each well. The IC50 value was were calculated by nonlinear curve fitting in GraphPad Prism 9.

For data set [2], the target named is T2, NRP1 (Homo sapiens, UniProt O14786).
T2 construct: expressed in transfected cells; host or cells: HUVEC, adenovirus NRP1
As to the kind of experiment: In vitro NRP1 inhibition assay (125I-VEGF-A binding displacement, NRP1-transfected HUVEC cells). Conditions: 125I-VEGF-A165 binding competition, 2 h, 4°C. The method, then:
The method was performed as described previously ([Jarvis et al., 2010]). Radiolabeled binding displacement experiments were performed as described previously ([Jia et al., 2006]). Confluent adenovirus NRP1-transfected HUVEC cells in 96-well plates were washed twice with PBS. At 4°C various concentrations of compounds diluted in binding medium (Dulbecco’s modified Eagle’s medium, 25 mM HEPES, pH 7.3, containing 0.1% BSA) were added, followed by addition of the indicated concentration of ^125I-VEGF-A (1,200–1800 Ci/mmol, GE Healthcare, United Kingdom). After 2 h of incubation at 4°C, the medium was aspirated, and washed four times with cold phosphate-buffered saline. The cells were lysed with 0.25 M NaOH, 0.5% SDS solution, and the bound radioactivity of the lysates was measured. IC50 values were calculated from the competition curves of the compounds in the ^125I-VEGF-A165 binding assay using GraphPad Prism 9 software. Using log(inhibitors) vs response-Variable slope equation in the GraphPad Prism 9 to fit the curves. The equation was as follows: (Top and Bottom are the responses, respectively, at the top and bottom of the curve, Y is the inhibitory response at a given compound concentration X, and the Hillslope describes the steepness of the curve.) Y=Bottom+Top−Bottom/1+10^logIC50−xHillslope
T2 sequence (O14786 22-923): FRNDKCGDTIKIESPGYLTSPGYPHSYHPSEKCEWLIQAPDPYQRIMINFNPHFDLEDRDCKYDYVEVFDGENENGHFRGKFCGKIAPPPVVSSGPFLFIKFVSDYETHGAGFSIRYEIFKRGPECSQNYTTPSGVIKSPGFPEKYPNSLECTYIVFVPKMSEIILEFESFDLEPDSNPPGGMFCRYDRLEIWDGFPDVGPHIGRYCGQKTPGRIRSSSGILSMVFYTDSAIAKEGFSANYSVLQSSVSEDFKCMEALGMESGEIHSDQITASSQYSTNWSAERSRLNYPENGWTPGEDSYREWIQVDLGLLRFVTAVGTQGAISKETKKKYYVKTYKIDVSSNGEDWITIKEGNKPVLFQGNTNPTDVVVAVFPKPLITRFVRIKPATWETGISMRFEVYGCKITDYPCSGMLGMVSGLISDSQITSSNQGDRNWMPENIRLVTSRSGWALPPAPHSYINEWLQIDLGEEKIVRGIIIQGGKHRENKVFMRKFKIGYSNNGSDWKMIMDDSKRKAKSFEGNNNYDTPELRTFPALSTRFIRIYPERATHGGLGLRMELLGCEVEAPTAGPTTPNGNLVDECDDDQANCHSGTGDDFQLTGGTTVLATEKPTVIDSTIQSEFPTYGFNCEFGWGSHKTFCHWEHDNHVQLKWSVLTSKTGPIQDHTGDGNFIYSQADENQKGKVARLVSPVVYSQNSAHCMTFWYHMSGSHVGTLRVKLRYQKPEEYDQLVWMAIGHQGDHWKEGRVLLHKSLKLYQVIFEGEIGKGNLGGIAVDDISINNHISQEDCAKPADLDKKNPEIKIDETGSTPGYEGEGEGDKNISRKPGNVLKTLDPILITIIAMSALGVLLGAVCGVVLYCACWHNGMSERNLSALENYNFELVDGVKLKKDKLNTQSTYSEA

Data set [3] addresses T3, NRP1 (Homo sapiens, UniProt O14786).
T3 construct: purchased Abcam
T3 sequence (O14786 22-644 isoform O14786-2 limits assumed): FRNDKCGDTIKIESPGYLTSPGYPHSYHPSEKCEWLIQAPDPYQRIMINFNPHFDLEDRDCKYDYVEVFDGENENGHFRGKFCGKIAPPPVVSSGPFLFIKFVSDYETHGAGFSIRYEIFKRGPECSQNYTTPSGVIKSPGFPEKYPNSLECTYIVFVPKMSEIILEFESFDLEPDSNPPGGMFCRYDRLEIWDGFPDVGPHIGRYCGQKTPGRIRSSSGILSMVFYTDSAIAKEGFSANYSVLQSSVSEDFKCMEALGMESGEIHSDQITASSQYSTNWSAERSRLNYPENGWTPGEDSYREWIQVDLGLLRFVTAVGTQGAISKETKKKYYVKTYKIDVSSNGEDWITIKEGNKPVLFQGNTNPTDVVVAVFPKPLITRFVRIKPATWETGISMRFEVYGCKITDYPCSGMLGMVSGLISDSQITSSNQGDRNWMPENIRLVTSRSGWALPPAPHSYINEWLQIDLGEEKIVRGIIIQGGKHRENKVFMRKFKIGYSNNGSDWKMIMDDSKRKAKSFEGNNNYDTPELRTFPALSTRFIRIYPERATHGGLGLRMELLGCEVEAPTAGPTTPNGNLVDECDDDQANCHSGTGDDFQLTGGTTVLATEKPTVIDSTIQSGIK
As to the kind of experiment: Microscale thermophoresis (MST) assay. Conditions: labeled protein 50 nM; for Kd: read-out: NRP1 (K d). In kind it is binding. On the procedure:
(§1) All samples were diluted in 1 × PBST. […] Affinity Analysis software.
For orientation: MST reads how a fluorescent partner responds to local heating, with and without ligand.

Data set [4] concerns the target T1, PARP1. The experiment in a line: Microscale thermophoresis (MST) assay. In kind it is binding. Conditions: labeled protein 50 nM; for Kd: read-out: PARP1 (K d). The method, then: as §1
The subject of data set [5] is MDA-MB-231 cells. The experiment in a line: In vitro antiproliferation assay (MTT). In kind it is cell-based. Conditions: Homo sapiens. On the procedure: Cell viability was measured by MTT assays. […] Afterward, the medium was removed. MTT (5 mg/mL) was dissolved in phosphate-buffered saline (PBS) and filter-sterilized, and then, 20 μL of the prepared MTT solution was added to each well, and the cells were incubated for another 4 h until a purple precipitate was visible. The supernatant was removed by centrifugation, and DMSO (150 μL/well) was added to dissolve the insoluble crystals. The absorbance was determined using an enzyme-linked immunosorbent assay reader at a test wavelength of 570 nm. The assays were performed three times in a parallel manner. The non-linear regression was used to plot a Dose-Response-Inhibition to determine the value of the IC50. […] The data were analyzed using GraphPad Prism 9 software.

Data set [6] relates to MDA-MB-231 xenograft tumor. The experiment in a line: In vivo antitumor assay. Conditions: 5 mg/kg intraperitoneally every 3 days, n = 6. Also on record: species or system BALB/c nude mice. On the procedure:
Twenty-four female BALB/c nude mice (body weight 16–20 g) at 4–6 weeks old were purchased from Changzhou Cavens Experimental Animal Limited Company (Changzhou, China). Mice were adaptively housed for 1 week in a specific pathogen-free (SPF) environment with a temperature of 25°C ± 2°C, a 12-hour light/dark cycle, and free access to food and water. MDA-MB-231 breast cancer cells (200 μL, 1×10^7 cells) were suspended in PBS to formulate cell suspension, and 0.1 mL of cells were injected into the axilla of the left forelimb of mice by subcutaneous injection. […] Equal concentrations of drug-free PBS buffer were used for the vehicle group. Each group was administered every 3 days and the body weight and tumor size of the mice were recorded. Mice were executed when the tumor volume approached 2000 mm^3. Tumor volumes of all mice were measured using vernier calipers. The mice were placed belly up and the longest diameter of the tumor was measured with the inner bayonet of a vernier caliper, and the shortest transverse diameter perpendicular to the diameter was measured with the inner bayonet of a vernier caliper and recorded. Tumor volume was estimated according to the following formula: (c × c × d)/2 (c, the smallest diameter; d, the largest diameter). All animal experiments were performed and approved by the Ethics Committee of China Pharmaceutical University.

Where [7] appears, read: 168 h, MDA-MB-231, concentration needed to reduce cell growth by 50% following 7 days cell treatment, read-out: IC50.

Where two headings read alike, the source gives them in different places.

The source of these data is publication PMC11637875, “Discovery of novel PARP1/NRP1 dual-targeting inhibitors with strong antitumor potency” (Frontiers in Pharmacology, 2024).

T1 sequence (P09874 whole entry): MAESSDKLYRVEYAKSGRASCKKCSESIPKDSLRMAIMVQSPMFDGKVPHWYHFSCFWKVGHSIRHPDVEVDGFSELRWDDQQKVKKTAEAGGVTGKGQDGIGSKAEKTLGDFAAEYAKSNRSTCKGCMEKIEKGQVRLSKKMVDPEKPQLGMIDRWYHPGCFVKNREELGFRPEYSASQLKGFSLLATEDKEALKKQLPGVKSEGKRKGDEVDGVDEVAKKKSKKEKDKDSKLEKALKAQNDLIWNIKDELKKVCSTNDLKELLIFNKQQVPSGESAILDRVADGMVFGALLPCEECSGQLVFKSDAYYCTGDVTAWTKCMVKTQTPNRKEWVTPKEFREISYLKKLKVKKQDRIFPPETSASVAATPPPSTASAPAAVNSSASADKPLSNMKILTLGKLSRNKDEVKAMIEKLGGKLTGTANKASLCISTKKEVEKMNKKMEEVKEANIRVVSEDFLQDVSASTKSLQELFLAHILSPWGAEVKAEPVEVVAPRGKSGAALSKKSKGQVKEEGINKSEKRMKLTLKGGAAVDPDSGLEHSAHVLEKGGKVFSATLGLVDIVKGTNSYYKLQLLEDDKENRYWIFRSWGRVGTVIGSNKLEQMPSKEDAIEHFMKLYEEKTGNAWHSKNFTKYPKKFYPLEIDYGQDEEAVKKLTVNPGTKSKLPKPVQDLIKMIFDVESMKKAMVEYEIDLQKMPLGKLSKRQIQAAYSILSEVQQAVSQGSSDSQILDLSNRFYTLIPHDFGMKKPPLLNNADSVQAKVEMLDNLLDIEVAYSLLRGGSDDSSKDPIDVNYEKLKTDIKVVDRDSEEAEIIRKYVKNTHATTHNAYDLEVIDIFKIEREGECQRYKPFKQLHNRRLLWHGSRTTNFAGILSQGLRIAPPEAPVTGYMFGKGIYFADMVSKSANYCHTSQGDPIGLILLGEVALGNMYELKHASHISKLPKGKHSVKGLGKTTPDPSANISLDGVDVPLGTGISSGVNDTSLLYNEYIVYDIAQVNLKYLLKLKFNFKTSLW

Turning to `NC(N)=NCCC[C@H](NC(=O)c1sccc1NS(=O)(=O)c1cccc2nsnc12)C(=O)O` [EG00229], in data set [1], the “PARP1 (IC50, nM)” value is listed as “No inhibition”. In addition, the results for the IC50 in data set [2] and in data set [5] (setting [7]) were 640 ± 34.7 nM and 62400 nM, respectively. In data set [3], the Kd turned out to be 519 nM. Further, in data set [4], the “PARP1 (K d, nM)” value is reported as “no binding”. The “body weight (g) in mice, mean” value was determined as 18.38 g in data set [6] (day 0); 18.51 g in data set [6] (day 3); 18.84 g in data set [6] (day 6); 19.19 g in data set [6] (day 9); 19.52 g in data set [6] (day 12). Moreover, the “tumor volume (mm^3), mean” value worked out at 101 mm^3 in data set [6] (day 0); 275 mm^3 in data set [6] (day 3); 502 mm^3 in data set [6] (day 6); 976 mm^3 in data set [6] (day 9); 1352 mm^3 in data set [6] (day 12).

Consider `O=C(c1cc(Cc2n[nH]c(=O)c3ccccc23)ccc1F)N1CCN(C(=O)C2CC2)CC1` [Olaparib, olaparib], for which the “NRP1 (IC50, nM)” value in data set [2] is “No inhibition”. Besides, the “NRP1 (K d, nM)” value in data set [3] is on record as “no binding”. Besides, in data set [5] (MDA-MB-231, 168 h), half-maximal inhibition (IC50) required 960 nM. For the same compound, the “body weight (g) in mice, mean” value in data set [6] (day 0) amounted to 18.29 g; in data set [6] (day 3) it was 18.55 g; in data set [6] (day 6) it was 19.12 g; in data set [6] (day 9), 19.37 g; in data set [6] (day 12), 19.59 g. Besides, the “tumor volume (mm^3), mean” value is 103 mm^3 in data set [6] (day 0); 245 mm^3 in data set [6] (day 3); 329 mm^3 in data set [6] (day 6); 513 mm^3 in data set [6] (day 9); 733 mm^3 in data set [6] (day 12).

Take `NC(N)=NCCC[C@H](NCNCCNC(=O)c1cc(Cc2n[nH]c(=O)c3ccccc23)ccc1F)C(=O)O` [PPNR-1]: the figures for the IC50 in data set [1], in data set [2] and in data set [5] (setting [7]) were 70.3 ± 3.13 nM, 94.1 ± 4.24 nM and 890 nM, respectively. The Kd was 91.5 nM in data set [3] and 75.1 nM in data set [4].

On to `NC(N)=NCCC[C@H](NCN1CCCN(C(=O)c2cc(Cc3n[nH]c(=O)c4ccccc34)ccc2F)C1)C(=O)O` [PPNR-2], for which the IC50 in data set [1] worked out at 29.3 ± 2.57 nM; in data set [2] it was 31.2 ± 3.95 nM; in data set [5] (setting [7]), 560 nM. The Kd was 31 nM in data set [3] and 28.4 nM in data set [4].

As for `NC(N)=NCCC[C@H](NC/C=C/CNC(=O)c1cc(Cc2n[nH]c(=O)c3ccccc23)ccc1F)C(=O)O` [PPNR-3], the IC50 in data set [1] amounted to 63.2 ± 4.02 nM; in data set [2], 72.9 ± 3.41 nM; in data set [5] (setting [7]) it was 830 nM. For the same compound, the values for the Kd in data set [3] and in data set [4] were 71.3 nM and 61.1 nM, respectively.

As for `CN(CCNC(=O)c1cc(Cc2n[nH]c(=O)c3ccccc23)ccc1F)CN[C@@H](CCCN=C(N)N)C(=O)O` [PPNR-5], the figures for the IC50 in data set [1], in data set [2] and in data set [5] (setting [7]) were 41.4 ± 2.86 nM, 57.1 ± 3.27 nM and 720 nM, respectively. Besides, the figures for the Kd in data set [3] and in data set [4] were 55.3 nM and 40 nM, respectively.

For orientation: IC50 means the concentration that inhibits the measured activity by half.
